One test has as its target T1, 5-HT1 -like receptor (Oryctolagus cuniculus, UniProt P49144).
T1 construct: contraction of the saphenous vein of New Zealand White rabbits; from tissue; host or cells: saphenous vein of New Zealand White rabbits
Nature of the test: agonist-mediated contraction of the saphenous vein of New Zealand White rabbits. Format: cell-based.
Conditions: not given
As for the experimental part:
The activity of test compounds as agonists of the 5-HT1 -like receptor was measured in terms of their ability to mediate contraction of the saphenous vein of New Zealand White rabbits, using the procedure described in Arch. Pharm., 1990, 342, 111. Agonist potencies were calculated as -log10 EC50 (pEC50) values, from plots of percentage 5-HT (1 μm) response against the concentration of the agonist.
T1 sequence (P49144 whole entry): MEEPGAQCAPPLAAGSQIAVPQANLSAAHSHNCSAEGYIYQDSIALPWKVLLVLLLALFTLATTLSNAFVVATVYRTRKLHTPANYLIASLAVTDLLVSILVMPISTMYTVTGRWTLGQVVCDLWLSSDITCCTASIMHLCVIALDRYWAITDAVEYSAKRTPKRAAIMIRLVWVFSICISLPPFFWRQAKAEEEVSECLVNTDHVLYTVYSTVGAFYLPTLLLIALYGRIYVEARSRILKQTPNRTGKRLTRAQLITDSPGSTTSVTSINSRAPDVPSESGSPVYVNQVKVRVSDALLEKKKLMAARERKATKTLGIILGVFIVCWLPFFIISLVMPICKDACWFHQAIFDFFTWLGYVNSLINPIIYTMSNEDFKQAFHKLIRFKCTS
One may read the EC50 as the concentration needed to bring the measured effect to its halfway point. `CN(C)CCc1c[nH]c2ccc(-c3nc(N)no3)cc12` [Example 49, N,N-Dimethyl-2-[5-(5-(3-amino-1,2,4-oxadiazol)yl)-1H-indol-3yl]ethylamine] displayed a concentration giving a half-maximal response (EC50) not above 10 µM. Same read-out and setting: in the case of `CN(C)CCc1c[nH]c2ccc(-c3nc(Cc4ccc(NC(N)=O)cc4)no3)cc12` [Example 52, N,N-Dimethyl-2[5-(5-(3-(4-carbamoylaminobenzyl)-1,2,4-oxadiazol)yl)-1H-indol-3-yl]ethylamine] it was not above 10 µM; in that of `CC(=O)Nc1ccc(Cc2noc(-c3ccc4[nH]cc(CCN(C)C)c4c3)n2)cc1` [Example 27, N,N-Dimethyl-2-[5-[5-(3-(4-Acetylaminobenzyl)-1,2,4-oxadiazol)yl]-1H-indol-3-yl]ethylamine], not above 10 µM; in that of `NCCc1c[nH]c2ccc(-c3nc(Cc4ccc(NC(N)=O)cc4)no3)cc12` [Example 44, 2-[5-(5-(3-(4-Carbamoylaminobenzyl)-1,2,4-oxadiazol)yl)-1H-indol-3-yl]ethylamine], not above 10 µM.

Regarding `NCCc1c[nH]c2ccc(Cc3nc(N)no3)cc12` [Example 6], the EC50 is not above 10 µM.

Take `CN(C)CCc1c[nH]c2ccc(-c3nc(CCNC(=O)OC(C)(C)C)no3)cc12` [Example 53, N,N-dimethyl-2-[5-(5-(3-(2-t-butyloxycarbonylamino)ethyl-1,2,4-oxadiazol)yl)-1H-indol-3-yl]ethylamine]: the EC50 was not above 10 µM. The same measure, in the same setting: in the case of `CNS(=O)(=O)c1ccc(Cc2noc(Cc3ccc4[nH]cc(CCN(C)C)c4c3)n2)cc1` [Example 65, N,N-Dimethyl-2-[5-(5-(3-(4-methylaminosulphonylbenzyl)-1,2,4-oxadiazol)ylmethyl)-1H-indol-3-yl]ethylamine] it was not above 10 µM; in that of `CN(C)CCc1c[nH]c2ccc(Cc3nc(N)no3)cc12` [Example 30, N,N-Dimethyl-2-[5-[5-(3-Amino-1,2,4-oxadiazol)ylmethyl]-1H-indol-3-yl]ethylamine], not above 10 µM. Same read-out and setting: under `NCCc1c[nH]c2ccc(-c3nc(Cc4ccccc4)no3)cc12` [Example 1, 2-[5-(5-(3-Benzyl-1,2,4-oxadiazol)-yl)-1H-indol-3-yl]ethylamine] stands not above 10 µM; under `NCCc1c[nH]c2ccc(Cc3nc(Cc4ccccc4)no3)cc12` [Example 4], not above 10 µM. Still for that read-out and setting: in the case of `CN(C)CCc1c[nH]c2ccc(-c3nc(CCNS(C)(=O)=O)no3)cc12` [Example 56, N,N-dimethyl-2-[5-(5-(3-(2-methylsulphonylamino)ethyl-1,2,4-oxadiazol)yl)-1H-indol-3-yl]ethylamine] it was not above 10 µM. Turning to `NCCc1c[nH]c2ccc(-c3nc(N)no3)cc12` [Example 45, 2-[5-(5-(3-Amino-1,2,4-oxadiazol)-yl)-1H-indol-3-yl]ethylamine], the EC50 was not above 10 µM. `CN(C)CCc1c[nH]c2ccc(Cc3nc(N4CCN(C(=O)OC(C)(C)C)CC4)no3)cc12` [Example 93, N,N-Dimethyl-2-[5-(5-(3-(4-^t-butyloxycarbonyl)piperazine-1,4-yl-1,2,4-oxadiazol)ylmethyl)-1H-indol-3-yl]ethylamine] showed an EC50 not above 10 µM. Compound `CN(C)CCc1c[nH]c2ccc(Cc3nc(CNC(=O)c4ccccc4)no3)cc12` [Example 88, N,N-Dimethyl-2-[5-(5-(3-phenylcarboxamidomethyl-1,2,4-oxadiazol)ylmethyl)-1H-indol-3-yl]ethylamine] showed an EC50 not above 10 µM.

Staying with this test, now noted: rabbit saphenous vein contraction; from plots of percentage 5-HT (1 μm) response against agonist concentration.
Turning to `CN(C)CCc1c[nH]c2ccc(-c3nc(Cc4ccc(NS(C)(=O)=O)cc4)no3)cc12` [Example 28, N,N-Dimethyl-2-[5-[5-(3-(4-Methylsulphonylaminobenzyl)-1,2,4-oxadiazol)yl]-1H-indol-3-yl]ethyl amine], the “agonist potency -log10 EC50 (pEC50)” value is on record as “not less than 5.0”. Same read-out and setting: under `CN(C)CCc1c[nH]c2ccc(CCc3nc(N)no3)cc12` [Example 61, N,N-Dimethyl-2-[5-(2-(5-(3-amino-1,2,4-oxadiazol)yl)ethyl)-1H-indol-3-yl]ethylamine] stands “not less than 5.0”.

The test is the same for the next values; noted with them: rabbit saphenous vein contraction; from plots of percentage 5-HT (1 μm) response against agonist concentration; read-out: agonist potency -log10 EC50 (pEC50) (converted).
In the case of `CN1CCC(c2c[nH]c3ccc(Cc4nc(N)no4)cc23)CC1` [Example 110, 4-[5-(3-Amino-1,2,4-oxadiazol-5-ylmethyl)-1H-indol-3-yl]N-methylpiperidine], the EC50 is not above 10 µM.

Values taken from US5317103A, “Indole-substituted five-membered heteroaromatic compounds as 5-HT1 agonists” (Merck Sharp & Dohme Limited, priority 1992, dated 1994).
